Measured values reported in ChEMBL document CHEMBL5543092, “Design, synthesis, and biological characterization of proteolysis targeting chimera (PROTACs) for the ataxia telangiectasia and RAD3-related (ATR) kinase” (Eur J Med Chem, 2024).
Active and inactive are the calls of the source. The rule behind the calls is not given here.

What was measured:
[1] = Chemical stability of the compound in at pH 7.4 measured at 6 hrs by HPLC based non-enzymatic stability assay; assay type: physicochemical; details: buffer, read-out: Stability
[2] = Chemical stability of the compound in at pH 7.4 measured at 12 hrs by HPLC based non-enzymatic stability assay; assay type: physicochemical; details: buffer, read-out: Stability
[3] = Chemical stability of the compound in at pH 7.4 measured at 24 hrs by HPLC based non-enzymatic stability assay; assay type: physicochemical; details: buffer, read-out: Stability
[4] = Chemical stability of the compound in at pH 7.4 measured at 48 hrs by HPLC based non-enzymatic stability assay; assay type: physicochemical; details: buffer, read-out: Stability
[5] = Chemical stability of the compound in at pH 7.4 measured at 72 hrs by HPLC based non-enzymatic stability assay; assay type: physicochemical; details: buffer, read-out: Stability
[6] = biological target: T1, Protein cereblon/Serine/threonine-protein kinase ATR (Homo sapiens) (UniProt Q13535+Q96SW2); test: PROTAC activity at ATR/CRBN in patient derived human MIA PaCa-2 cells assessed as reduction in protein level at 5 uM measured after 24 hrs by immunoblot analysis relative to untreated control; assay type: cell-based; design: scale not given: the % may be the effect or the level left
T1 sequence (Q13535 whole entry, looked up): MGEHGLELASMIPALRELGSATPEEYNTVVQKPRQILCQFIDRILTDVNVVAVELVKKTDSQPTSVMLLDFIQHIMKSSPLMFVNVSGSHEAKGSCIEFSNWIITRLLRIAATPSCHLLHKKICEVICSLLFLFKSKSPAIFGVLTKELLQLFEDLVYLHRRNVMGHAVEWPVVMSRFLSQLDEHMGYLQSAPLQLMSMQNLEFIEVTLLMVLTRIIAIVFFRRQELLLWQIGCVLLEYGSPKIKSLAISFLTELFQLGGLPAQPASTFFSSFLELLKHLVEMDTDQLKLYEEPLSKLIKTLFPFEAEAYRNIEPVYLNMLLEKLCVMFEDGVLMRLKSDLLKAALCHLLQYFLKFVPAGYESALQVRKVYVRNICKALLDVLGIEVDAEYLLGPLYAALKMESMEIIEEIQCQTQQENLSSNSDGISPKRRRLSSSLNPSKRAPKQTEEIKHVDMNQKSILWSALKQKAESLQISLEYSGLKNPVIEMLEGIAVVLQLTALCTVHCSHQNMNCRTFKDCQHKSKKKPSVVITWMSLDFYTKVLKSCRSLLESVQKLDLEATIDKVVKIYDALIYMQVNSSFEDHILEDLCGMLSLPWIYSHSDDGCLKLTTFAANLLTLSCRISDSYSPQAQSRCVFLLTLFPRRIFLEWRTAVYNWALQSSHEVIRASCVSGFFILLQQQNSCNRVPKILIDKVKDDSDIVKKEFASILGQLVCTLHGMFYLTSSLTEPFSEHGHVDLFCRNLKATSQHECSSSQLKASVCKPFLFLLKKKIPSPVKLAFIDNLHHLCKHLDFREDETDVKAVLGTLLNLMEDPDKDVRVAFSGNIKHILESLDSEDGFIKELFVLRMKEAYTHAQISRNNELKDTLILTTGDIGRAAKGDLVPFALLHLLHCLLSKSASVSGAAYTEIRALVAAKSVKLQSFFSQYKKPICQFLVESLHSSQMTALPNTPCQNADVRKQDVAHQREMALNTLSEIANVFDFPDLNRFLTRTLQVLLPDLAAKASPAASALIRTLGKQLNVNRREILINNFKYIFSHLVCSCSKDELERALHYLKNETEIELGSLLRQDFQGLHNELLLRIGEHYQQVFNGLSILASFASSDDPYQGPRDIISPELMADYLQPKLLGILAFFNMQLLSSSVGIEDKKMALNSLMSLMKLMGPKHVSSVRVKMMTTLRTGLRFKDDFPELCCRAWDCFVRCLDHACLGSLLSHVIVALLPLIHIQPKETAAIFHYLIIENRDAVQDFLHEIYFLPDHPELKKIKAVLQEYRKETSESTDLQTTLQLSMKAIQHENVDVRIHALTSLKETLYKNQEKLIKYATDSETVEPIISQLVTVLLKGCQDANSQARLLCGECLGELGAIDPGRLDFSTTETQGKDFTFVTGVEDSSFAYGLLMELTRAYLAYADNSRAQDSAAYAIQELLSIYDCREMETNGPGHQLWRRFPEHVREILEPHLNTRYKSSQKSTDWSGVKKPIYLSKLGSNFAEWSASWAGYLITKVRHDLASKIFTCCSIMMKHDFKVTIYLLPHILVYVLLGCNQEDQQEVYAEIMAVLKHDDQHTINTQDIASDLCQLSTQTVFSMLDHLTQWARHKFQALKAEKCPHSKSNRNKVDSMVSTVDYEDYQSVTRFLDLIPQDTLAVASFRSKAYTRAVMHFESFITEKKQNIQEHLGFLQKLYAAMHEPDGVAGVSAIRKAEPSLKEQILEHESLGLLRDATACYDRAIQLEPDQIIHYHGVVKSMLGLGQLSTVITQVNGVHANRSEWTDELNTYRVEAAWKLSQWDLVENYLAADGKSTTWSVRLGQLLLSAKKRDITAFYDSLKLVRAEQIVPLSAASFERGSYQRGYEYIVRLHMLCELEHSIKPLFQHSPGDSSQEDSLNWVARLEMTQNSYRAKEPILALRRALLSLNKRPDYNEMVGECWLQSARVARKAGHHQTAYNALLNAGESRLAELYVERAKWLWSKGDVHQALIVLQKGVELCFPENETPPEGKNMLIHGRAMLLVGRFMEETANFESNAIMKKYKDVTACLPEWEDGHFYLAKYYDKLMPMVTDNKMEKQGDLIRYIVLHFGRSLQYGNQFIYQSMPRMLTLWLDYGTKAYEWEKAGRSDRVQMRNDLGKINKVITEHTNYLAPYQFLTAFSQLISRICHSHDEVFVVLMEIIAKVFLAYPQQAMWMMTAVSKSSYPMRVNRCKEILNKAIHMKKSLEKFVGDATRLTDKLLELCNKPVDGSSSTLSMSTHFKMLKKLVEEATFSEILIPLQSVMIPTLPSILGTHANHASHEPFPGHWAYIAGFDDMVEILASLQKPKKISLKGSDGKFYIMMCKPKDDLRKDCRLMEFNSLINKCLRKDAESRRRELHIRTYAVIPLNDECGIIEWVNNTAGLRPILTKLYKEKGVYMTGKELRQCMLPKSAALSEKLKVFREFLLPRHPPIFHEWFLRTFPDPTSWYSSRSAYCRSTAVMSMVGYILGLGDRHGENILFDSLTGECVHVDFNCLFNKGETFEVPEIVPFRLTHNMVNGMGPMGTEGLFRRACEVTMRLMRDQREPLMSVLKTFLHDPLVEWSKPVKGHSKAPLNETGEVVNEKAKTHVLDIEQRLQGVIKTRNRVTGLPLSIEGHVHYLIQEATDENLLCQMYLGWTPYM
T1 sequence (Q96SW2 whole entry, looked up): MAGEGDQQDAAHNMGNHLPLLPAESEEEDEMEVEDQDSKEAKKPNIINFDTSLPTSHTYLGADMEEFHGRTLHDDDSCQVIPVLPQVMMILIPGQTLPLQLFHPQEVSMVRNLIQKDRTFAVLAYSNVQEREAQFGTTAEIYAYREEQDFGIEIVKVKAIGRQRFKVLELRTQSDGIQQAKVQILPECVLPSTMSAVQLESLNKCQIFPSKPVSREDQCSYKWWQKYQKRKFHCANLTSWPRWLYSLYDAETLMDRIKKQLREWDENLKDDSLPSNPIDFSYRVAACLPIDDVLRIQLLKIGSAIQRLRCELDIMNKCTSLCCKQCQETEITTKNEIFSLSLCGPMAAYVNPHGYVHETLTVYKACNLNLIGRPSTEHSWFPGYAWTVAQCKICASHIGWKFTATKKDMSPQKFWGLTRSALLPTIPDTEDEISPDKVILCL

HEK293 = test: Cytotoxicity against human HEK293 cells assessed as cell viability at 50 uM incubated for 24 hrs by Alamar Blue reagent based assay relative to control; assay type: functional; details: read-out: Activity
[7] = Plasma protein binding in human plasma; assay type: ADME, cell-free; details: read-out: PPB (converted)
[8] = Plasma stability in human plasma assessed as compound remaining at 20 uM measured after 24 hrs by HPLC analysis; assay type: ADME, cell-free; details: read-out: Stability
ATR/ATRIP = ATR/ATRIP (Homo sapiens, UniProt Q13535); test: Inhibition of human ATR/ATRIP complex using GST-cMyc-p53 substrate measured after 30 mins by HTRF based non-radioactive in vitro assay; assay type: protein-complex assay
Chain of ATR/ATRIP (Q13535 whole entry): as the sequence (Q13535 whole entry, looked up) above
Chain of ATR/ATRIP (Q8WXE1 whole entry, further chain): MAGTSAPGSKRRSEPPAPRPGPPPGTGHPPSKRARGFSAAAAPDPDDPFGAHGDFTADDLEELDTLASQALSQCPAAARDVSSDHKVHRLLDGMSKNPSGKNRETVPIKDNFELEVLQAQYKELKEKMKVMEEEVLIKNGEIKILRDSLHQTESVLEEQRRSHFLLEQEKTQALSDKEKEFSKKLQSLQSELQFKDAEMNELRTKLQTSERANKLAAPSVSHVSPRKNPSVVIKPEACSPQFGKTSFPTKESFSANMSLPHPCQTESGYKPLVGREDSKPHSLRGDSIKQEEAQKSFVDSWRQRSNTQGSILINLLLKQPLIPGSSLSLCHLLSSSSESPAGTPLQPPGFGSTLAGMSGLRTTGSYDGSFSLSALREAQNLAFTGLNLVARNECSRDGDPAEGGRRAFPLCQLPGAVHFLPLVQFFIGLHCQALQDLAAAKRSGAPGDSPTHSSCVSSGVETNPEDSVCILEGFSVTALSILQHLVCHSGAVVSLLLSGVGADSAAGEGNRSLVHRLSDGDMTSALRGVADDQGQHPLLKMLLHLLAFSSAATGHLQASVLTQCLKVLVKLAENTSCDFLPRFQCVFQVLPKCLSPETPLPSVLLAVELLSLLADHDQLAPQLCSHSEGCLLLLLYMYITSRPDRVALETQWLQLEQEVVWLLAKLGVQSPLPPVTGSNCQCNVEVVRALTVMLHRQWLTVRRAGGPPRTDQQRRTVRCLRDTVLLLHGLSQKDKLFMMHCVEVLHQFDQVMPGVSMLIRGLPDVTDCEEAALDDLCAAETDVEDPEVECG

[9] = biological target: T2, von Hippel-Lindau disease tumor suppressor/Serine/threonine-protein kinase ATR (Homo sapiens) (UniProt Q13535+P40337); test: PROTAC activity at ATR/VHL in patient derived human MIA PaCa-2 cells assessed as protein degradation at 2 uM measured after 24 hrs by immunoblot analysis relative to untreated control; assay type: cell-based
T2 sequence (P40337 whole entry, looked up): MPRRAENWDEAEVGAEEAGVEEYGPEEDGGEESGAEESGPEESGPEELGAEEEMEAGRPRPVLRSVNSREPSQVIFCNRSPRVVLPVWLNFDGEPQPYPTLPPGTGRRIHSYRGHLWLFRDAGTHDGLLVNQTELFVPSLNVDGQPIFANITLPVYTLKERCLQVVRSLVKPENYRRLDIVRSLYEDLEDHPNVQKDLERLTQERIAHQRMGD
T2 sequence (Q13535 whole entry, looked up): as the sequence (Q13535 whole entry, looked up) above

[10] = biological target: T2, von Hippel-Lindau disease tumor suppressor/Serine/threonine-protein kinase ATR (Homo sapiens); test: PROTAC activity at ATR/VHL in patient derived human MIA PaCa-2 cells assessed as protein degradation at 5 uM measured after 24 hrs by immunoblot analysis relative to untreated control; assay type: cell-based
MIA PaCa-2 [11] = test: Induction of […] degradation in patient derived human MIA PaCa-2 cells assessed as reduction in protein level at 2 uM measured after 24 hrs by immunoblot analysis; assay type: functional, cell-based
[12] = biological target: T1, Protein cereblon/Serine/threonine-protein kinase ATR (Homo sapiens); test: PROTAC activity at ATR/CRBN in patient derived human MIA PaCa-2 cells assessed as reduction in protein level at 0.1 to 5 uM measured after 24 hrs by immunoblot analysis relative to untreated control; assay type: cell-based; details: dose 0.1-5 µM
[13] = biological target: T1, Protein cereblon/Serine/threonine-protein kinase ATR (Homo sapiens); test: PROTAC activity at ATR/CRBN in patient derived human MIA PaCa-2 cells assessed as reduction in protein level at 500 nM measured after 24 hrs by immunoblot analysis relative to untreated control; assay type: cell-based; design: scale not given: the % may be the effect or the level left
[14] = biological target: T1, Protein cereblon/Serine/threonine-protein kinase ATR (Homo sapiens); test: PROTAC activity at ATR/CRBN in patient derived human MIA PaCa-2 cells assessed as reduction in protein level at 2 uM measured after 24 hrs by immunoblot analysis relative to untreated control; assay type: cell-based; design: scale not given: the % may be the effect or the level left
MIA PaCa-2 [15] = test: Induction of apoptosis in human MIA PaCa-2 cells assessed as cell death at 2 uM incubated for 24 hrs by Annexin-V/PI based flow cytometry; assay type: functional
MIA PaCa-2 [16] = test: Effect on GSPT1 expression in human MIA PaCa-2 cells at 0.5 to 2 uM incubated for 24 hrs by immunoblot analysis; assay type: functional, cell-based; details: dose 0.5-2 µM
[17] = biological target: T1, Protein cereblon/Serine/threonine-protein kinase ATR (Homo sapiens); test: PROTAC activity at ATR/CRBN in human HeLa cells assessed as reduction in protein level at 500 nM measured after 24 hrs by immunoblot analysis relative to untreated control; assay type: cell-based; design: scale not given: the % may be the effect or the level left
[18] = biological target: T1, Protein cereblon/Serine/threonine-protein kinase ATR (Homo sapiens); test: PROTAC activity at ATR/CRBN in human HeLa cells assessed as reduction in p-ATR level at 500 nM measured after 24 hrs by immunoblot analysis relative to untreated control; assay type: cell-based; design: scale not given: the % may be the effect or the level left
HeLa [19] = test: Effect on ATM expression in human HeLa cells at 500 nM incubated for 24 hrs by immunoblot analysis; assay type: functional, cell-based
HeLa [20] = test: Effect on DNA-PKcs expression in human HeLa cells at 500 nM incubated for 24 hrs by immunoblot analysis; assay type: functional, cell-based
[21] = biological target: T1, Protein cereblon/Serine/threonine-protein kinase ATR (Homo sapiens); test: PROTAC activity at ATR/CRBN in patient derived human MIA PaCa-2 cells assessed as reduction in protein level at 2 uM measured after 3 hrs in presence of 50 nM bortezomib by immunoblot analysis; assay type: cell-based
[22] = biological target: T1, Protein cereblon/Serine/threonine-protein kinase ATR (Homo sapiens); test: PROTAC activity at ATR/CRBN in patient derived human MIA PaCa-2 cells assessed as reduction in protein level at 2 uM measured after 3 hrs in presence of 10 uM MG132 by immunoblot analysis; assay type: cell-based
[23] = biological target: T1, Protein cereblon/Serine/threonine-protein kinase ATR (Homo sapiens); test: PROTAC activity at ATR/CRBN in patient derived human MIA PaCa-2 cells assessed as reduction in protein level at 2 uM measured after 24 hrs by immunoblot analysis relative to irinotecan; assay type: cell-based; design: scale not given: the % may be the effect or the level left
[24] = biological target: T1, Protein cereblon/Serine/threonine-protein kinase ATR (Homo sapiens); test: PROTAC activity at ATR/CRBN in patient derived human MIA PaCa-2 cells assessed as reduction in irinotecan-induced p-CHK1 (S345) level at 2 uM measured after 24 hrs by immunoblot analysis relative to control; assay type: cell-based
MIA PaCa-2 [25] = test: Effect on CRBN expression in patient derived siCRBN transfected human MIA PaCa-2 cells at 2 uM measured after 24 hrs by immunoblot analysis; assay type: functional, cell-based
[26] = biological target: T1, Protein cereblon/Serine/threonine-protein kinase ATR (Homo sapiens); test: PROTAC activity at ATR/CRBN in patient derived human MIA PaCa-2 cells assessed as reduction in p-ATR (T1989) level at 2 uM measured after 24 hrs by immunoblot analysis relative to control; assay type: cell-based
MIA PaCa-2 [27] = test: Effect on CRBN expression in patient derived siCRBN transfected human MIA PaCa-2 cells at 5 uM measured after 24 hrs by immunoblot analysis; assay type: functional, cell-based
[28] = biological target: T1, Protein cereblon/Serine/threonine-protein kinase ATR (Homo sapiens); test: PROTAC activity at ATR/CRBN in patient derived human MIA PaCa-2 cells assessed as reduction in protein level at 1 uM measured after 24 hrs by immunoblot analysis relative to untreated control; assay type: cell-based

SMILES	remaining at 6 h [1] [%]	remaining at 12 h [2] [%]	remaining at 24 h [3] [%]	remaining at 48 h [4] [%]	remaining at 72 h [5] [%]	viability at 50 µM (HEK293) [%]	also measured
Nc1ncc(-c2ccc(S(=O)(=O)NCCCCCC(=O)N3CCN(c4ccc5c(c4)C(=O)N(C4CCC(=O)NC4=O)C5=O)CC3)cc2)nc1C(=O)Nc1ccccc1 (stereo unspecified)	101	101	96	87	72	96	Activity [6]: 40%
CNS(=O)(=O)c1ccc(-c2cnc(N)c(C(=O)Nc3ccccc3)n2)cc1	99	100	100	102	104	83.7	fraction unbound [7]: 0.225; remaining at 24 h, 20 µM [8]: > 92%; IC50 (ATR/ATRIP): 1 µM
Cc1ncsc1-c1ccc(CNC(=O)[C@@H]2C[C@@H](O)CN2C(=O)[C@@H](NC(=O)CCOCCOCCOCCNS(=O)(=O)c2ccc(-c3cnc(N)c(C(=O)Nc4ccccc4)n3)cc2)C(C)(C)C)cc1	100	100	102	103	105	45.7	Activity [9]: inactive; Activity [10]: inactive
Cc1ncsc1-c1ccc(CNC(=O)[C@@H]2C[C@@H](O)CN2C(=O)[C@@H](NC(=O)CCOCCOCCNS(=O)(=O)c2ccc(-c3cnc(N)c(C(=O)Nc4ccccc4)n3)cc2)C(C)(C)C)cc1	100	100	101	101	102	44.5	Activity [9]: inactive; Activity [10]: inactive
CS(=O)(=O)c1ccc(-c2cnc(N)c(C(=O)Nc3ccccc3)n2)cc1							Activity (MIA PaCa-2 [11]): inactive
Nc1ncc(-c2ccc(S(=O)(=O)NCCCCCC(=O)N3CCN(c4cccc(C(=O)NC5CCC(=O)NC5=O)n4)CC3)cc2)nc1C(=O)Nc1ccccc1 (stereo unspecified)	102	104	97	82	65	86.5	Activity [12]: inactive
Nc1ncc(-c2ccc(S(=O)(=O)NCCCCCC(=O)NCCCC#Cc3cccc4c3CN(C3CCC(=O)NC3=O)C4=O)cc2)nc1C(=O)Nc1ccccc1 (stereo unspecified)	102	104	106	110	115	77.1	fraction unbound [7]: 0.106; remaining at 24 h, 20 µM [8]: 75%; IC50 (ATR/ATRIP): > 10 µM; Activity [13]: 40%; Activity [14]: 40%; Activity (MIA PaCa-2 [15]): inactive; Activity (MIA PaCa-2 [16]): inactive; Activity [17]: 60%; Activity [18]: 60%; Activity (HeLa [19]): inactive; Activity (HeLa [20]): inactive; Activity [21]: inactive; Activity [22]: inactive; Activity [23]: 80%; fold change (FC) [24]: 0.5; Activity (MIA PaCa-2 [25]): inactive; fold change (FC) [26]: 0.1
Cc1ncsc1-c1ccc(CNC(=O)[C@@H]2C[C@@H](O)CN2C(=O)[C@@H](NC(=O)CCCCCNS(=O)(=O)c2ccc(-c3cnc(N)c(C(=O)Nc4ccccc4)n3)cc2)C(C)(C)C)cc1	99	99	100	100	100	60.3	Activity [9]: inactive; Activity [10]: inactive
CCc1c2c(nc3ccc(OC(=O)N4CCC(N5CCCCC5)CC4)cc13)-c1cc3c(c(=O)n1C2)COC(=O)[C@]3(O)CC							Activity (MIA PaCa-2 [27]): inactive
Nc1ncc(-c2ccc(S(=O)(=O)NCCCCCCC(=O)NCCCC#Cc3cccc4c3CN(C3CCC(=O)NC3=O)C4=O)cc2)nc1C(=O)Nc1ccccc1 (stereo unspecified)	102	103	105	105	109	109	Activity [28]: Active
Nc1ncc(-c2ccc(S(=O)(=O)NCCCCCCCC(=O)NCCOc3ccc(C4CCC(=O)NC4=O)cc3)cc2)nc1C(=O)Nc1ccccc1 (stereo unspecified)	100	99	100	100	100	62.9	Activity [12]: inactive
